According to ChEMBL document CHEMBL1909046, “DrugMatrix in vitro pharmacology data”:

What was measured:
[1] = DRUGMATRIX: Glutamate, AMPA radioligand binding (ligand: [3H] AMPA); type: cell membranes, Rattus norvegicus, Wistar, Cerebral cortex, Membrane; conditions: Not Active = under 50% inhibition at 10 µM
[2] = DRUGMATRIX: Calcium Channel Type L, Phenylalkylamine radioligand binding (ligand: [3H] (-)-Desmethoxyverapamil (D-888)); type: cell membranes, Rattus norvegicus, Wistar, Brain, Membrane; conditions: Not Active = under 50% inhibition at 10 µM
[3] = DRUGMATRIX: Leukotriene, BLT (LTB4) radioligand binding (ligand: [3H]LTB4); type: cell membranes, Membrane; conditions: u-937; Not Active = under 50% inhibition at 10 µM
[4] = DRUGMATRIX: Phosphodiesterase PDE3 enzyme inhibition (substrate: [3H]cAMP + cAMP); type: tissue-based, Homo sapiens; conditions: platelet; Not Active = under 50% inhibition at 10 µM
[5] = target: T1, 5-hydroxytryptamine receptor 1A (Rattus norvegicus, UniProt P19327); type: cell membranes, CHO-K1, Membrane; further: in other assays of this panel Not Active means under 50% inhibition at 10 µM
T1 sequence (P19327 whole entry): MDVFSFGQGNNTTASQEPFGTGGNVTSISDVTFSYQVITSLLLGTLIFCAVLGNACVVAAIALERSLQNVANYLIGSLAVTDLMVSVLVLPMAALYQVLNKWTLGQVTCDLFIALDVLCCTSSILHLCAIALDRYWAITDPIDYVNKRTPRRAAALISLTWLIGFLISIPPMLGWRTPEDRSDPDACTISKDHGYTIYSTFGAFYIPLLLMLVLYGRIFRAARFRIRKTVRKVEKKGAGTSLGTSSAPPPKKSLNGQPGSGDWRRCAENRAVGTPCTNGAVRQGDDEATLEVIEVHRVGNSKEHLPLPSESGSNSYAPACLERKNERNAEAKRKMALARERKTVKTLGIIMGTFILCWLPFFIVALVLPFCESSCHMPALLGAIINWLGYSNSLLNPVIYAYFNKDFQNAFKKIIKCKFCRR

B2 bradykinin receptor = target: T2, B2 bradykinin receptor (Homo sapiens, UniProt P30411); type: cell membranes, Membrane; conditions: chem-1; further: in other assays of this panel Not Active means under 50% inhibition at 10 µM
T2 sequence (P30411 whole entry): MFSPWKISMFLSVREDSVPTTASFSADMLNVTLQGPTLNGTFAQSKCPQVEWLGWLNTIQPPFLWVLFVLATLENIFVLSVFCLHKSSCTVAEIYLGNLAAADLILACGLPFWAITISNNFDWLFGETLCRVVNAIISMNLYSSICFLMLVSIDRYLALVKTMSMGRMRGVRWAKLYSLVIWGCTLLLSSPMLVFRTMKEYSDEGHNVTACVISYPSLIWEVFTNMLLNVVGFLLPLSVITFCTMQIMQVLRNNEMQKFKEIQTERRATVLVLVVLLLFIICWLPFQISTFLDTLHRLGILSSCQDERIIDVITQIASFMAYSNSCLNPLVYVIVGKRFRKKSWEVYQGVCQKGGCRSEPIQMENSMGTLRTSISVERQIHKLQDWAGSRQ

[6] = DRUGMATRIX: beta-Lactamase enzyme inhibition (substrate: Nitrocefin); design: species or system Bacillus cereus; conditions: Not Active = under 50% inhibition at 10 µM

| SMILES | IC50 [1] | Ki [1] | IC50 [2] | Ki [2] | IC50 [3] | Ki [3] | IC50 [4] | Ki [4] | IC50 ([5]; cho-k1) | IC50 (B2 bradykinin receptor) | IC50 [6] | Ki [6] | IC50 ([5]; read-out: IC50) [nM] | Ki ([5]; read-out: Ki) [nM] |
| --- | --- | --- | --- | --- | --- | --- | --- | --- | --- | --- | --- | --- | --- | --- |
| C=CCc1ccc(O)c(OC)c1 [EUGENOL] | Not Active | Not Active | Not Active | Not Active | Not Active | Not Active | Not Active | Not Active | Not Active | Not Active | Not Active | Not Active |  |  |
| COc1ccc2[nH]cc(CCNC(C)=O)c2c1 [MELATONIN] | Not Active | Not Active | Not Active | Not Active | Not Active | Not Active | Not Active | Not Active | Not Active | Not Active | Not Active | Not Active |  |  |
| CC(C)NCC(O)COc1cccc2[nH]ccc12 (centres undefined) [PINDOLOL] | Not Active | Not Active | Not Active | Not Active | Not Active | Not Active | Not Active | Not Active |  | Not Active | Not Active | Not Active | 48 | 27 |
| N=C(N)NC(=O)Cc1c(Cl)cccc1Cl [GUANFACINE] | Not Active | Not Active | Not Active | Not Active | Not Active | Not Active | Not Active | Not Active | Not Active | Not Active | Not Active | Not Active |  |  |
| O=C(N/N=C/c1ccc([N+](=O)[O-])o1)c1cc([N+](=O)[O-])cc([N+](=O)[O-])c1O [NIFURSOL] | Not Active | Not Active | Not Active | Not Active | Not Active | Not Active | Not Active | Not Active | Not Active | Not Active | Not Active | Not Active |  |  |
| COc1cc2nc(N3CCN(C(=O)c4ccco4)CC3)nc(N)c2cc1OC [PRAZOSIN] | Not Active | Not Active | Not Active | Not Active | Not Active | Not Active | Not Active | Not Active | Not Active | Not Active | Not Active | Not Active |  |  |
| CC(C)NNC(=O)c1ccncc1 [IPRONIAZID] | Not Active | Not Active | Not Active | Not Active | Not Active | Not Active | Not Active | Not Active | Not Active | Not Active | Not Active | Not Active |  |  |
| COc1cc([C@@H]2c3cc4c(cc3[C@@H](O[C@@H]3O[C@@H]5CO[C@@H](C)O[C@H]5[C@H](O)[C@H]3O)[C@H]3COC(=O)[C@H]23)OCO4)cc(OC)c1O [ETOPOSIDE] | Not Active | Not Active | Not Active | Not Active | Not Active | Not Active | Not Active | Not Active | Not Active | Not Active | Not Active | Not Active |  |  |
| CC(C(=O)O)c1cccc(Oc2ccccc2)c1 (centres undefined) [FENOPROFEN] | Not Active | Not Active | Not Active | Not Active | Not Active | Not Active | Not Active | Not Active | Not Active | Not Active | Not Active | Not Active |  |  |
| COc1ccc2c3c1O[C@H]1C[C@@H](O)C=C[C@@]31CCN(C)C2 [GALANTAMINE] | Not Active | Not Active | Not Active | Not Active | Not Active | Not Active | Not Active | Not Active | Not Active | Not Active | Not Active | Not Active |  |  |
| O=C(O)CCNC(=O)c1ccccc1 [BETAMIPRON] | Not Active | Not Active | Not Active | Not Active | Not Active | Not Active | Not Active | Not Active | Not Active | Not Active | Not Active | Not Active |  |  |
| C#C[C@]1(OC(C)=O)CC[C@H]2[C@@H]3CCC4=C[C@@H](OC(C)=O)CC[C@@H]4[C@H]3CC[C@@]21C [ETHYNODIOL DIACETATE] | Not Active | Not Active | Not Active | Not Active | Not Active | Not Active | Not Active | Not Active | Not Active | Not Active | Not Active | Not Active |  |  |
| Oc1cccc(O)c1O [PYROGALLOL] | Not Active | Not Active | Not Active | Not Active | Not Active | Not Active | Not Active | Not Active | Not Active | Not Active | Not Active | Not Active |  |  |
| O=C/C=C/c1ccccc1 | Not Active | Not Active | Not Active | Not Active | Not Active | Not Active | Not Active | Not Active | Not Active | Not Active | Not Active | Not Active |  |  |
| CN/C(=N\CCSCc1nc[nH]c1C)NC#N [CIMETIDINE] | Not Active | Not Active | Not Active | Not Active | Not Active | Not Active | Not Active | Not Active | Not Active | Not Active | Not Active | Not Active |  |  |
| C[n+]1ccc(-c2cc[n+](C)cc2)cc1.[Cl-].[Cl-] [PARAQUAT DICHLORIDE] | Not Active | Not Active | Not Active | Not Active | Not Active | Not Active | Not Active | Not Active | Not Active | Not Active | Not Active | Not Active |  |  |
| CCCN(CCC)S(=O)(=O)c1ccc(C(=O)O)cc1 [PROBENECID] | Not Active | Not Active | Not Active | Not Active | Not Active | Not Active | Not Active | Not Active | Not Active | Not Active | Not Active | Not Active |  |  |
| C#CC1(O)CC[C@H]2[C@@H]3CCC4=CC(=O)CC[C@@H]4[C@H]3CC[C@@]21CC (some centres undefined) [NORGESTREL] | Not Active | Not Active | Not Active | Not Active | Not Active | Not Active | Not Active | Not Active | Not Active | Not Active | Not Active | Not Active |  |  |
| CC[C@H]1CN2CCc3cc(OC)c(OC)cc3[C@@H]2C[C@@H]1C[C@H]1NCCc2cc(OC)c(OC)cc21 [EMETINE] | Not Active | Not Active | Not Active | Not Active | Not Active | Not Active | Not Active | Not Active | Not Active | Not Active | Not Active | Not Active |  |  |
